Experimental data: publication PMC7059547, “Synthesis and herbicidal activities of aryloxyacetic acid derivatives as HPPD inhibitors” (Beilstein Journal of Organic Chemistry, 2020)
“Also recorded” adds a separate entry of the source. Read-outs that look alike come from different tables or passages of the source.

Tests used:
[1] = target: T1, Arabidopsis thaliana HPPD (AtHPPD) (Arabidopsis thaliana, UniProt P93836); experiment: AtHPPD enzyme inhibition study; type: biochemical
T1 construct: made in house
T1 sequence (P93836 1-445): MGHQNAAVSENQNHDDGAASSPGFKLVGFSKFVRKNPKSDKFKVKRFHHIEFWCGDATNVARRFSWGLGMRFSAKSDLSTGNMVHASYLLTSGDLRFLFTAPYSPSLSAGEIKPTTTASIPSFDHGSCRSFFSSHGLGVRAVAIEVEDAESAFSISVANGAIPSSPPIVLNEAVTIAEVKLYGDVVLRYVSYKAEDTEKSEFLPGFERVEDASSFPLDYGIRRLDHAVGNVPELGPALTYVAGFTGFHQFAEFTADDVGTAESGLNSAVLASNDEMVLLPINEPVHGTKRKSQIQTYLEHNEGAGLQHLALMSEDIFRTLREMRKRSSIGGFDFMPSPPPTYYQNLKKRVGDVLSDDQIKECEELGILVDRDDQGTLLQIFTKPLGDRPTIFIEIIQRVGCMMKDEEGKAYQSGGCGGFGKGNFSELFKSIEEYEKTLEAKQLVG
Description: AtHPPD was prepared and puriﬁed according to the reported methods in the literature [19–2035–37].

[2] = test system: E. crus-galli, S. faberii, D. sanguinalis, A. retroflexus, E. prostrata, A. juncea; experiment: Post-emergence greenhouse herbicidal activity; type: in vivo; set-up: Sum of inhibition rate: scale not given here; details: 150 g ai/ha; for Sum of inhibition rate / herbicidal activity (in words): post-emergence; for Sum of inhibition rate: sum over six weeds (AJ, AR, EP, DS, EC, SF), 18 days after treatment
rice = experiment: Postemergence crop safety, rice; type: in vivo; details: 150 g ai/ha, four-leaf stage, after 15 days
Description: (§1) The representative crops, rice, wheat, maize, cotton, soybean, and canola were selected to test the crop safety of compound II3, II4, and II5. The six crops were separately planted in ﬂowerpots (12 cm diameter) containing the composite nutrient soil and grown at room temperature. When the crops had reached the four-leaf stage, the safety experiments were conducted at the rate of 150 g ai/ha. After 15 days, the ﬁnal results of crop safety were evaluated with two duplicates per experiment (Table 3).

wheat = experiment: Postemergence crop safety, wheat; type: in vivo; details: 150 g ai/ha; for % injury wheat: postemergence, four-leaf stage, after 15 days
Description: as §1

maize = experiment: Postemergence crop safety, maize; type: in vivo; details: 150 g ai/ha; for % injury maize: postemergence, four-leaf stage, after 15 days
Description: as §1

cotton = experiment: Postemergence crop safety, cotton; type: in vivo; details: 150 g ai/ha, four-leaf stage, after 15 days
Description: as §1

soybean = experiment: Postemergence crop safety, soybean; type: in vivo; details: 150 g ai/ha, four-leaf stage, after 15 days
Description: as §1

canola = experiment: Postemergence crop safety, canola; type: in vivo; details: 150 g ai/ha, four-leaf stage, after 15 days
Description: as §1

Row | SMILES | Ki ([1]; read-out: AtHPPD inhibition Ki) [nM] | Sum of inhibition rate [2] | also measured
1 | Cn1nc(C2CC2)c(C(=O)COc2ccccc2)c1O [I1] | 1500 ± 31 | 60 | 
2 | Cn1nc(C(F)(F)F)c(C(=O)COc2ccccc2)c1O [I2] | 1300 ± 17 | 40 | 
3 | Cn1nc(C(F)(F)F)c(C(=O)COc2ccccc2Cl)c1O [I4] | 590 ± 43 | 40 | 
4 | CC1(C)CC(=O)C(C(=O)COc2ccc(Cl)cc2)=C(O)C1 [I5] | 1000 ± 36 | 110 | 
5 | Cn1nc(C(F)(F)F)c(C(=O)COc2ccc(Cl)cc2)c1O [I6] | 930 ± 32 | 180 | 
6 | Cn1nc(C(F)(F)F)c(C(=O)COc2c(Cl)cc(Cl)cc2Cl)c1O [I12] |  | 335 | herbicidal activity (in words) [2]: poorer than expected herbicidal activity
7 | CC1(C)CC(=O)C(C(=O)COc2ccccc2[N+](=O)[O-])=C(O)C1 [I13] | 450 ± 33 | 30 | 
8 | Cn1nc(C(F)(F)F)c(C(=O)COc2ccccc2[N+](=O)[O-])c1O [I16] | 440 ± 13 | 10 | 
9 | CC1(C)CC(=O)C(C(=O)COc2ccc([N+](=O)[O-])cc2)=C(O)C1 [I18] | 930 ± 6 | 70 | 
10 | Cc1nn(C)c(O)c1C(=O)COc1ccc([N+](=O)[O-])cc1 [I19] | 630 ± 2 | 100 | 
11 | Cn1nc(C2CC2)c(C(=O)COc2ccc([N+](=O)[O-])cc2)c1O [I20] | 500 ± 3 | 60 | 
12 | Cn1nc(C(F)(F)F)c(C(=O)COc2ccc([N+](=O)[O-])cc2)c1O [I21] | 1500 ± 41 | 100 | 
13 | CC1(C)CC(=O)C(C(=O)COc2ccc([N+](=O)[O-])cc2Cl)=C(O)C1 [I22] | 1020 ± 9 | 70 | 
14 | O=C1CCCC(O)=C1C(=O)COc1cc(Cl)ccc1Oc1ccc(Cl)cc1Cl [I26] | 1900 ± 1 | 30 | 
15 | Cc1ccc(OCC(=O)C2=C(O)CCCC2=O)c(C)c1 [I30] | 2200 ± 34 | 40 | 
16 | Cc1ccc(OCC(=O)C2=C(O)CC(C)(C)CC2=O)c(C)c1 [I31] | 3100 ± 340 | 20 | 
17 | Cc1ccc(OCC(=O)c2c(C)nn(C)c2O)c(C)c1 [I32] | 2000 ± 9 | 30 | 
18 | Cc1ccc(OCC(=O)c2c(C3CC3)nn(C)c2O)c(C)c1 [I33] | 2800 ± 45 | 30 | 
19 | Cc1ccc(OCC(=O)c2c(C(F)(F)F)nn(C)c2O)c(C)c1 [I34] | 2800 ± 670 | 30 | 
20 | COc1cc(C)ccc1OCC(=O)C1=C(O)CCCC1=O [I35] |  | 40 | Ki [1]: 3300 ± 140 nM
21 | COc1cc(C)ccc1OCC(=O)C1=C(O)CC(C)(C)CC1=O [I36] |  | 20 | Ki [1]: 3400 ± 210 nM
22 | COc1cc(C)ccc1OCC(=O)c1c(C)nn(C)c1O [I37] |  | 40 | Ki [1]: 2700 ± 530 nM
23 | COc1cc(C)ccc1OCC(=O)c1c(C2CC2)nn(C)c1O [I38] |  | 50 | Ki [1]: 2900 ± 38 nM
24 | O=C1CCCC(O)=C1C(=O)COc1ccccc1 [I39] | 1300 ± 56 | 40 | 
25 | Cc1nn(C)c(O)c1C(=O)COc1ccccc1 [I40] | 1200 ± 31 | 50 | 
26 | Cn1nc(C2CC2)c(C(=O)COc2nc(Cl)c(Cl)cc2Cl)c1O [II4] |  | 520 | Ki [1]: 23 ± 6 nM; herbicidal activity (in words) [2]: broad-spectrum herbicidal activities; also recorded: slightly higher herbicidal activity than mesotrione; also recorded: excellent herbicidal activities; herbicidal activity for pre-emergence treatment (in words) ([2]; pre-emergence treatment as printed in the abstract): slightly better than that of mesotrione; % injury rice (rice): 30%; % injury wheat (wheat): 50%; crop tolerance / safety of maize (in words) (maize): safe for weed control in maize fields; also recorded: tolerance; also recorded: safe for use on maize; % injury maize (maize): 10%; % injury cotton (cotton): 60%; % injury soybean (soybean): 30%; % injury canola (canola): 100%
27 | Cn1nc(C(F)(F)F)c(C(=O)COc2ccc3ccccc3c2Br)c1O [III4] | 2000 ± 12 | 90 | 

More lines, main results first:

Row | Ki ([1]; read-out: AtHPPD inhibition Ki) [nM] | SMILES | Sum of inhibition rate [2] | also measured
28 | 360 ± 12 | Cn1nc(C2CC2)c(C(=O)COc2ccccc2Cl)c1O [I3] | 80 | 
29 | 360 ± 12 | Cn1nc(C2CC2)c(C(=O)COc2ccc(Cl)cc2Cl)c1O [I7] | 210 | 
30 | 220 ± 23 | Cn1nc(C(F)(F)F)c(C(=O)COc2ccc(Cl)cc2Cl)c1O [I8] | 170 | 
31 | 310 ± 48 | CC1(C)CC(=O)C(C(=O)COc2c(Cl)cc(Cl)cc2Cl)=C(O)C1 [I9] | 70 | 
32 | 240 ± 3 | Cc1nn(C)c(O)c1C(=O)COc1c(Cl)cc(Cl)cc1Cl [I10] | 60 | 
33 | 81 ± 1 | Cn1nc(C2CC2)c(C(=O)COc2c(Cl)cc(Cl)cc2Cl)c1O [I11] | 335 | 
34 | 210 ± 42 | Cc1nn(C)c(O)c1C(=O)COc1ccccc1[N+](=O)[O-] [I14] | 40 | 
35 | 270 ± 4 | Cn1nc(C2CC2)c(C(=O)COc2ccccc2[N+](=O)[O-])c1O [I15] | 40 | 
36 | 230 ± 4 | O=C1CCCC(O)=C1C(=O)COc1ccc([N+](=O)[O-])cc1 [I17] | 80 | 
37 | 12 ± 9 | Cc1nn(C)c(O)c1C(=O)COc1ccc([N+](=O)[O-])cc1Cl [I23] | 80 | 
38 | 260 ± 12 | Cn1nc(C2CC2)c(C(=O)COc2ccc([N+](=O)[O-])cc2Cl)c1O [I24] | 110 | 
39 | 210 ± 43 | Cn1nc(C(F)(F)F)c(C(=O)COc2ccc([N+](=O)[O-])cc2Cl)c1O [I25] | 100 | 
40 | 93 ± 7 | O=C1CCCC(O)=C1C(=O)COc1nc(Cl)c(Cl)cc1Cl [II1] | 50 | 
41 | 97 ± 10 | CC1(C)CC(=O)C(C(=O)COc2nc(Cl)c(Cl)cc2Cl)=C(O)C1 [II2] | 20 | 
42 | 21 ± 4 | Cc1nn(C)c(O)c1C(=O)COc1nc(Cl)c(Cl)cc1Cl [II3] | 415 | herbicidal activity (in words) [2]: broad-spectrum herbicidal activities; also recorded: excellent herbicidal activities; % injury rice (rice): 40%; crop tolerance of wheat (in words) (wheat): high tolerance; % injury wheat (wheat): 10%; crop tolerance / safety of maize (in words) (maize): high tolerance; % injury maize (maize): 10%; % injury cotton (cotton): 60%; % injury soybean (soybean): 50%; % injury canola (canola): 90%
43 | 230 ± 11 | O=C1CCCC(O)=C1C(=O)COc1cccnc1[N+](=O)[O-] [III5] | 50 | 
44 | 210 ± 42 | Cn1nc(C2CC2)c(C(=O)COc2cccnc2[N+](=O)[O-])c1O [III6] | 60 | 
